What was measured:
Type in all cases: cell-based
PLK1 = molecular target: T1, PLK1 (Homo sapiens, UniProt P53350); assay: Luciferase assay for PLK1 in HeLa LgBit (Plk1-HiBit KI) cell line; details: 300 nM compound, luminescence after 9 hours
T1 construct: endogenous in cells; host or cells: HeLa LgBit (Plk1-HiBit KI): HeLa stably expressing LgBit, with a CRISPR/Cas9 knock-in of HiBit at the endogenous PLK1 locus
Description: 2. Luciferase Assay for PLK1
(1) Preparation and Culture of HeLa LgBit (Plk1-HiBit KI) Cell Line
A HeLa cell line in which the LgBit vector was transfected and expressed stably was prepared. Then, after constructing gRNA and donor to express the HiBit amino acid sequence behind the C-terminal of the PLK1 gene, which was inherent in the cell, it was inserted into the cell together with a vector capable of expressing CRISPR/Cas9. Only the cells in which the insertion was completed and knock-in had progressed were selected, sub-cultured and used.
For cell culture, DMEM (Gibco), FBS (Gibco), PS (Gibco), […] cell culture dish (SPL), […] cell culture dish (SPL), 96-well culture plate (SPL), PBS pH 7.4 (Gibco), TrypLE™ Express (Gibco), Cell counter (Thermo Fisher Scientific) and 0.4% Trypan Blue Solution (DYNEBIO) were used.
(2) Treatment of Compounds of the Present Invention and Method of Luciferase Assay
In the case of HeLa LgBit (Plk1-HiBit KI), the compounds were treated after being released after thymidine block, and the process was as follows. Thymidine (Sigma-Aldrich) was completely dissolved in ddH2O and used in the experiment. For thymidine block, the products were treated with 2 mM of thymidine and then incubated for 24 hours. For release and chemical treatment, the medium was suctioned and washed with 1×PBS. TrypLE™ (Gibco) was added and incubated in 37° C. CO2 incubator (Thermo Fisher Scientific) for 5 mins. Cells neutralized by adding complete media were counted through a counter. For each well of a 96-well culture plate (SPL), 3.3×10^4 cells and a total medium volume of 150 μl were seeded and incubated in a CO2 incubator.
Each cell line was incubated in a CO2 incubator for 18 hours, and Endurazine (Promega, Cat. No. N257B) was added to each well to make up 4% of the total volume. After adding compounds of Examples in a 96-well white plate (SPL) to a concentration of 300 nM, the wavelength of the plate reader (BMG Labtech, CLARIOstar Plus) was set to 470-480 nm, and then the luminescence was tracked in real time.
In Table 2, Activity represents the ratio of the luminescence value of each Exemplary Compound treatment group to DMSO treatment group (+++: <0.3, ++: <0.5, +: <0.7).

MRC-5 cell line = assay: Cell viability assay for MRC-5 cell line (EZ-Cytox); details: Homo sapiens, MRC5, 120 h; MRC-5 normal cell line, 5 days, 10000 nM to 1.52 nM; read-out: Activity: IC50 value, cell viability, MRC-5 cell line (Exemplary Compounds)
Description: 4. Cell Viability Assay for MRC-5 Cell Line
(1) Culture of MRC-5 Cell Line
The MRC-5 cell line was purchased from KCLB. Passage of cultured cells was maintained within P15.
(2) Treatment of Compounds of the Present Invention
Then, it was cultured in 37° C. CO2 incubator (Thermo Fisher Scientific) for 5 days.
(3) Cytotoxicity Experiment
CO2 incubator for 4 hours.

NCI-H526 cell line = assay: Cell viability assay for NCI-H526 cell line (EZ-Cytox); details: Homo sapiens, NCI-H526, 120 h; H526 cells, 5 days, 3000 nM to 0.46 nM
Description: (§1) 3. Cell Viability Assay for NCI-H69, NCI-H526 Cell Lines
(§2) (1) Culture of NCI-H69, NCI-H526 Cell Lines
(§3) The NCI-H69 (hereafter H69) and NCI-H526 (hereafter H526) cell lines were purchased from KCLB.
(§4) (2) Treatment of Compounds of the Present Invention and Method of Cell Viability Assay
(§5) After treating the compound to each well to make the total volume of 200 μl, it was cultured in a CO2 incubator (Thermo Fisher Scientific) for 5 days. […] The absorbance of the completely cultured sample was measured by setting the wavelength of a plate reader (BMG Labtech) to […], and was measured after shaking for 3 minutes in a plate reader before measurement.
(§6) The results of cell viability for H526 and H69 cell line are shown in Table 3 and Table 4, respectively.
(§7) In Table 3 and Table 4, Activity represents IC50 value of each Exemplary Compound treatment group to H526 and H69 cell line, respectively (A: <30 nM, B: <50 nM, C: <100 nM, D: <200 nM, E: <400 nM).

NCI-H69 cell line = assay: Cell viability assay for NCI-H69 cell line (EZ-Cytox); details: Homo sapiens, NCI-H69, 120 h; H69 cells, 5 days, 3000 nM to 0.46 nM
Description: as §1, §2, §3, §4, §5, §6, §7

T1 sequence (P53350 whole entry): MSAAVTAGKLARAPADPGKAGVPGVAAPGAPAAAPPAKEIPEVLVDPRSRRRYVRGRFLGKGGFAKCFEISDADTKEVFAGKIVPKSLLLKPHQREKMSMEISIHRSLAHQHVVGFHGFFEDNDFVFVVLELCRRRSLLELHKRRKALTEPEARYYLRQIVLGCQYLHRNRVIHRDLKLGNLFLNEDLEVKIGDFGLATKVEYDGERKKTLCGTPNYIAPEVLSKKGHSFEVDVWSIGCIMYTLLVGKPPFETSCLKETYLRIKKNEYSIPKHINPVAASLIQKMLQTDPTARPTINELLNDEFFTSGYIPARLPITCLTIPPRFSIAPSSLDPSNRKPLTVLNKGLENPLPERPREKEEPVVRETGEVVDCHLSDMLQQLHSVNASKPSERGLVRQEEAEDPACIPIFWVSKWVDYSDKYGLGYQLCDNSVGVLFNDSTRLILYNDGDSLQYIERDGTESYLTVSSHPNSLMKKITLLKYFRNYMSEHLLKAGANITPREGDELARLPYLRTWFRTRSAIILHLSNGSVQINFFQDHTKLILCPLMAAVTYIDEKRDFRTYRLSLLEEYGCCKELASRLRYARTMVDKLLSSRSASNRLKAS

| SMILES | Activity: ratio of the luminescence value of compound treatment group to DMSO treatment group (PLK1) | IC50 (MRC-5 cell line) | IC50 (NCI-H526 cell line) | IC50 (NCI-H69 cell line) |
| --- | --- | --- | --- | --- |
| COc1cc(C(=O)NC2CC3(CCN(CC4CCN(c5cnc(C6CCC(=O)NC6=O)cc5C)CC4)CC3)C2)ccc1Nc1ncc2c(n1)N(C1CCCC1)CC(F)(F)C(=O)N2C (stereo not shown) [Compound 17, 4-((9-cyclopentyl-7,7-difluoro-5-methyl-6-oxo-6,7,8,9-tetrahydro-5H-pyrimido[4,5-b][1,4]diazepin-2-yl)amino)-N-(7-((1-(6-(2,6-dioxopiperidin-3-yl)-4-methylpyridin-3-yl)piperidin-4-yl)methyl)-7-azaspiro[3.5]nonan-2-yl)-3-methoxybenzamide] | +++ (+++: <0.3) | > 10 µM | < 0.03 µM | < 0.03 µM |
| COc1cc(C(=O)NC2CC3(CCN(CC4CCN(c5ccc(C6CCC(=O)NC6=O)nc5C)CC4)CC3)C2)ccc1Nc1ncc2c(n1)N(C1CCCC1)CC(F)(F)C(=O)N2C (stereo not shown) [Compound 18, 4-((9-cyclopentyl-7,7-difluoro-5-methyl-6-oxo-6,7,8,9-tetrahydro-5H-pyrimido[4,5-b][1,4]diazepin-2-yl)amino)-N-(7-((1-(6-(2,6-dioxopiperidin-3-yl)-2-methylpyridin-3-yl)piperidin-4-yl)methyl)-7-azaspiro[3.5]nonan-2-yl)-3-methoxybenzamide] | ++ (++: <0.5) | > 10 µM | < 0.03 µM | < 0.03 µM |
| COc1cc(C(=O)NC2CCC(N(C)CC3CCN(c4cnc(C5CCC(=O)NC5=O)cc4F)CC3)CC2)ccc1Nc1ncc2c(n1)N(C1CCCC1)CC(F)(F)C(=O)N2C (stereo not shown) [Compound 20, 4-((9-cyclopentyl-7,7-difluoro-5-methyl-6-oxo-6,7,8,9-tetrahydro-5H-pyrimido[4,5-b][1,4]diazepin-2-yl)amino)-N-((1r,4r)-4-(((1-(6-(2,6-dioxopiperidin-3-yl)-4-fluoropyridin-3-yl)piperidin-4-yl)methyl)(methyl)amino)cyclohexyl)-3-methoxybenzamide] | +++ (+++: <0.3) | > 10 µM | < 0.03 µM | < 0.03 µM |
| COc1cc(C(=O)N[C@H]2C3CN(CC4CCN(c5ccc(NC6CCC(=O)NC6=O)cc5)CC4)C[C@@H]32)ccc1Nc1ncc2c(n1)N(C(C)C)CC(F)(F)C(=O)N2C (stereo partly drawn) [Compound 22, 4-((7,7-difluoro-9-isopropyl-5-methyl-6-oxo-6,7,8,9-tetrahydro-5H-pyrimido[4,5-b][1,4]diazepin-2-yl)amino)-N-((1R,5S,6s)-3-((1-(4-((2,6-dioxopiperidin-3-yl)amino)phenyl)piperidin-4-yl)methyl)-3-azabicyclo[3.1.0]hexan-6-yl)-3-methoxybenzamide] | +++ (+++: <0.3) | > 10 µM | < 0.05 µM | < 0.05 µM |
| COc1cc(C(=O)N[C@H]2[C@@H]3CN(CCN4CCN(c5ccc(NC6CCC(=O)NC6=O)cc5)CC4)C[C@@H]32)ccc1Nc1ncc2c(n1)N(C(C)C)CC(F)(F)C(=O)N2C (stereo partly drawn) [Compound 23, 4-((7,7-difluoro-9-isopropyl-5-methyl-6-oxo-6,7,8,9-tetrahydro-5H-pyrimido[4,5-b][1,4]diazepin-2-yl)amino)-N-((1R,5S,6s)-3-(2-(4-(4-((2,6-dioxopiperidin-3-yl)amino)phenyl)piperazin-1-yl)ethyl)-3-azabicyclo[3.1.0]hexan-6-yl)-3-methoxybenzamide] | ++ (++: <0.5) | > 10 µM | < 0.03 µM | < 0.05 µM |
| COc1cc(C(=O)N[C@H]2[C@@H]3CN(CCC4CCN(c5ccc(NC6CCC(=O)NC6=O)cc5)CC4)C[C@@H]32)ccc1Nc1ncc2c(n1)N(C(C)C)CC(F)(F)C(=O)N2C (stereo partly drawn) [Compound 24, 4-((7,7-difluoro-9-isopropyl-5-methyl-6-oxo-6,7,8,9-tetrahydro-5H-pyrimido[4,5-b][1,4]diazepin-2-yl)amino)-N-((1R,5S,6s)-3-(2-(1-(4-((2,6-dioxopiperidin-3-yl)amino)phenyl)piperidin-4-yl)ethyl)-3-azabicyclo[3.1.0]hexan-6-yl)-3-methoxybenzamide] | ++ (++: <0.5) | > 10 µM | < 0.05 µM | < 0.1 µM |
| COc1cc(C(=O)NN2C[C@@H]3[C@@H](CCN4CCN(c5ccc(NC6CCC(=O)NC6=O)cc5)CC4)[C@@H]3C2)ccc1Nc1ncc2c(n1)N(C(C)C)CC(F)(F)C(=O)N2C (stereo partly drawn) [Compound 25, 4-((7,7-difluoro-9-isopropyl-5-methyl-6-oxo-6,7,8,9-tetrahydro-5H-pyrimido[4,5-b][1,4]diazepin-2-yl)amino)-N-((1R,5S,6s)-6-(2-(4-(4-((2,6-dioxopiperidin-3-yl)amino)phenyl)piperazin-1-yl)ethyl)-3-azabicyclo[3.1.0]hexan-3-yl)-3-methoxybenzamide] | ++ (++: <0.5) | > 10 µM | < 0.03 µM | < 0.1 µM |

Continued, in another order:

| Activity: ratio of the luminescence value of compound treatment group to DMSO treatment group (PLK1) | SMILES | IC50 (MRC-5 cell line) | IC50 (NCI-H526 cell line) | IC50 (NCI-H69 cell line) |
| --- | --- | --- | --- | --- |
| +++ (+++: <0.3) | COc1cc(C(=O)N[C@H]2CC[C@H](CN(C)C3CCN(c4cnc(C5CCC(=O)NC5=O)cc4C)CC3)CC2)ccc1Nc1ncc2c(n1)N(C(C)C)CC(F)(F)C(=O)N2C (stereo partly shown) [Compound 16, 4-((7,7-difluoro-9-isopropyl-5-methyl-6-oxo-6,7,8,9-tetrahydro-5H-pyrimido[4,5-b][1,4]diazepin-2-yl)amino)-N-((1r,4r)-4-(((1-(6-(2,6-dioxopiperidin-3-yl)-4-methylpyridin-3-yl)piperidin-4-yl)(methyl)amino)methyl)cyclohexyl)-3-methoxybenzamide] | > 10 µM | < 0.03 µM | < 0.03 µM |
| ++ (++: <0.5) | COc1cc(C(=O)NC2CC3(CCN(CC4CCN(c5cnc(C6CCC(=O)NC6=O)cc5C)CC4)CC3)C2)ccc1Nc1ncc2c(n1)N(C(C)C)CC(F)(F)C(=O)N2C (stereo not shown) [Compound 19, 4-((7,7-difluoro-9-isopropyl-5-methyl-6-oxo-6,7,8,9-tetrahydro-5H-pyrimido[4,5-b][1,4]diazepin-2-yl)amino)-N-(7-((1-(6-(2,6-dioxopiperidin-3-yl)-4-methylpyridin-3-yl)piperidin-4-yl)methyl)-7-azaspiro[3.5]nonan-2-yl)-3-methoxybenzamide] | > 10 µM | < 0.03 µM | < 0.03 µM |
| +++ (+++: <0.3) | COc1cc(C(=O)NN2CCC(CCN3CCN(c4cnc(C5CCC(=O)NC5=O)cc4F)CC3)CC2)ccc1Nc1ncc2c(n1)N(C(C)C)CC(F)(F)C(=O)N2C (stereo not shown) [Compound 21, 4-((7,7-difluoro-9-isopropyl-5-methyl-6-oxo-6,7,8,9-tetrahydro-5H-pyrimido[4,5-b][1,4]diazepin-2-yl)amino)-N-(4-(2-(4-(6-(2,6-dioxopiperidin-3-yl)-4-fluoropyridin-3-yl)piperazin-1-yl)ethyl)piperidin-1-yl)-3-methoxybenzamide] | > 10 µM | < 0.03 µM | < 0.03 µM |

From patent US20260273072A1, “NOVEL PLK1 DEGRADATION INDUCING COMPOUND” (UPPTHERA, INC., priority 2023, published 2026)
